Source: article PMC8781960, “Structural Basis of 2-Phenylamino-4-phenoxyquinoline Derivatives as Potent HIV-1 Non-Nucleoside Reverse Transcriptase Inhibitors” (Molecules, 2022)
Marks after values point to notes of the source that are not given here.

What was measured:
[1] = system: MRC-5 (normal embryonic lung cell); experiment: In vitro cytotoxicity (MTT), normal cell line; details: for %C percentage cytotoxicity MRC-5: normal cell line, at 50 µg/mL, inactive (IC50 ≥ 50 µg/mL); for IC50: Homo sapiens, MRC5, 48 h, read-out: IC50 MRC-5
Experimental: (§1) Background control wells contained the same volume as the complete culture medium. […] Samples at various concentrations were added to the microplate and incubated for another 48 h. Cell viability was determined by 3(4,5-dimethylthiazol-2-yl)-2-5-diphenyl tetrazolium bromide (MTT) assay (Sig-ma-Aldrich). The reagent was dissolved in phosphate-buffered saline at 5 mg/mL and filtered to sterilize and remove the small amount of insoluble residue present in some batches of MTT. […] Subsequently, dimethyl sulfoxide (100 µL; Merck, Germany) was added to dissolve the resulting formazan by sonication. The plates were read on a microplate reader (Molecular Devices, CA, USA) using a test wavelength of 550 nm and a reference wavelength of 650 nm. XTT assay for suspension cells was used for MOLT-3 cells.

HIV-1 RT [2] = target: T1, HIV-1 RT (Human immunodeficiency virus type 1 group M subtype B, UniProt P03366); design: method as in PMID 31698495; details: 1 µM; previously reported values for 5a–5d; cited from earlier work
T1 construct: The reaction mixture consisted of template/primer complex, 2′-deoxy-nucleotide-5′-triphosphates (dNTPs), and RT enzyme in lysis buffer; purchased Roche Applied Science, Mannheim, Germany

[3] = system: H69AR (lung cancer, multidrug resistant); experiment: In vitro cytotoxicity (MTT); format: cell-based, human; details: 48 h; for %C percentage cytotoxicity H69AR: human, 50 µg/mL; for IC50: Homo sapiens, H69AR, mean ± standard error
Experimental: Background control wells contained the same volume as the complete culture medium. […] The reagent was dissolved in phosphate-buffered saline at 5 mg/mL and filtered to sterilize and remove the small amount of insoluble residue present in some batches of MTT. […] Subsequently, dimethyl sulfoxide (100 µL; Merck, Germany) was added to dissolve the resulting formazan by sonication. The plates were read on a microplate reader (Molecular Devices, CA, USA) using a test wavelength of 550 nm and a reference wavelength of 650 nm.

[4] = system: MOLT-3 (acute lymphoblastic leukemia); experiment: In vitro cytotoxicity (XTT); details: for IC50: Homo sapiens, MOLT-3, 48 h, read-out: IC50 MOLT-3; for %C percentage cytotoxicity MOLT-3: at 50 µg/mL, inactive (IC50 ≥ 50 µg/mL)
Experimental: as §1

[5] = system: T47-D (hormone-dependent breast cancer); experiment: In vitro cytotoxicity (MTT); details: for %C percentage cytotoxicity T47-D: at 50 µg/mL, inactive (IC50 ≥ 50 µg/mL); for IC50: Homo sapiens, T47D, 48 h, read-out: IC50 T47-D
Experimental: as §1

[6] = system: MDA-MB-231 (hormone-independent breast cancer); experiment: In vitro cytotoxicity (MTT); details: for %C percentage cytotoxicity MDA-MB-231: at 50 µg/mL, inactive (IC50 ≥ 50 µg/mL); for IC50: Homo sapiens, MDA-MB-231, 48 h, read-out: IC50 MDA-MB-231
Experimental: as §1

HepG2 (hepatocarcinoma) = experiment: In vitro cytotoxicity (MTT); details: for %C percentage cytotoxicity HepG2: at 50 µg/mL, inactive (IC50 ≥ 50 µg/mL); for IC50: Homo sapiens, HepG2, 48 h, read-out: IC50 HepG2
Experimental: as §1

HL-60 (promyeloblast) = experiment: In vitro cytotoxicity (MTT); details: for IC50: Homo sapiens, HL-60, 48 h, read-out: IC50 HL-60; for %C percentage cytotoxicity HL-60: at 50 µg/mL, inactive (IC50 ≥ 50 µg/mL)
Experimental: as §1

A549 (lung carcinoma) = experiment: In vitro cytotoxicity (MTT); details: for %C percentage cytotoxicity A549: at 50 µg/mL, inactive (IC50 ≥ 50 µg/mL); for IC50: Homo sapiens, A549, 48 h, read-out: IC50 A549
Experimental: as §1

S102 (Thai liver cancer) = experiment: In vitro cytotoxicity (MTT); details: for %C percentage cytotoxicity S102: at 50 µg/mL, inactive (IC50 ≥ 50 µg/mL); for IC50: Homo sapiens, 48 h, read-out: IC50 S102
Experimental: as §1

[7] = system: HeLA (cervical carcinoma); experiment: In vitro cytotoxicity (MTT); details: for IC50: Homo sapiens, HeLa, 48 h, read-out: IC50 HeLA; for %C percentage cytotoxicity HeLA: at 50 µg/mL, inactive (IC50 ≥ 50 µg/mL)
Experimental: as §1

[8] = system: HuCCA-1 (cholangiocarcinoma); experiment: In vitro cytotoxicity (MTT); details: for %C percentage cytotoxicity HuCCA-1: at 50 µg/mL, inactive (IC50 ≥ 50 µg/mL); for IC50: Homo sapiens, HuCC-A1, 48 h, read-out: IC50 HuCCA-1
Experimental: as §1

HIV-1 RT [9] = target: T1, HIV-1 RT; experiment: HIV-1 RT inhibition assay (Roche RT kit, colorimetric ELISA); format: biochemical; details: for inhibition at 1 µM: read-out: Inhibitory activities (%) against HIV-1 RT
Text: The inhibition assay of HIV-1 RT was accomplished using the template/primer hybrid poly(A) × oligo(dT)15, digoxigenin (DIG)- and biotin-labeled nucleotides, an antibody to DIG that was conjugated to peroxidase (anti-DIG-POD), and the peroxidase substrate ABTS. The quantities of DIG- and biotin-labeled dUTP incorporated into DNA represent t HIV-1 RT activity. The HIV-RT inhibition assay was implemented using an RT assay kit (Roche Applied Science, Mannheim, Germany), and the procedures for assaying RT inhibition were performed as described in the kit protocol. […] The reaction mixture consisted of template/primer complex, 2′-deoxy-nucleotide-5′-triphosphates (dNTPs), and RT enzyme in lysis buffer with or without an inhibitor. […] The biotin-labeled dNTPs that were incorporated in the template bound to streptavidin because of the presence of RT. Unbound dNTPs were washed using a wash buffer, and anti-DIG-POD was added to the MTP. The DIG-labeled dNTPs incorporated in the template bound to the anti-DIG-POD antibody. Unbound anti-DIG-POD was also washed elaborately five times using a wash buffer. Finally, the peroxide substrate (ABST) was added to the MTP. A colored reaction product emerged during the cleavage of the substrate catalyzed by […]. The absorbance of the sample was measured at the optical density (OD) at 490 nm using the MTP (enzyme-linked immunosorbent assay [ELISA]) reader. The percentage inhibitory activities of the RT inhibitors were calculated by comparing with that of the sample without an inhibitor. The resulting color intensity was directly proportional to the RT activity. Percentage inhibitory values were calculated using the following formula: Inhibition (%) = [1–(OD value with RT and inhibitor−OD value without RT and inhibitors)/(OD value without inhibitors with RT−OD value without RT and inhibitors)] × 100.

| SMILES | %C percentage cytotoxicity MRC-5 [1] | Inhibitory activities (%) against HIV-1 RT (HIV-1 RT [2]) [%] | %C percentage cytotoxicity H69AR [3] | IC50 [4] [µM] | melting point [°C] | %C percentage cytotoxicity T47-D [5] | %C percentage cytotoxicity MDA-MB-231 [6] | %C percentage cytotoxicity HepG2 (HepG2 (hepatocarcinoma)) | IC50 (HL-60 (promyeloblast)) [µM] | %C percentage cytotoxicity A549 (A549 (lung carcinoma)) | %C percentage cytotoxicity S102 (S102 (Thai liver cancer)) | IC50 [7] [µM] | %C percentage cytotoxicity HuCCA-1 [8] | %C percentage cytotoxicity MOLT-3 [4] | IC50 [1] [µM] | inhibition at 1 µM (HIV-1 RT [9]) [%] | IC50 [6] [µM] | IC50 (HepG2 (hepatocarcinoma)) [µM] | IC50 (A549 (lung carcinoma)) [µM] | IC50 [8] [µM] | other results |
| --- | --- | --- | --- | --- | --- | --- | --- | --- | --- | --- | --- | --- | --- | --- | --- | --- | --- | --- | --- | --- | --- |
| Cc1cc(C#N)cc(C)c1Oc1cc(Nc2ccc(C#N)cc2)nc2ccccc12 [Compound 5d, 4-(2′,6′-Dimethyl-4′-cyanophenoxy)-2-(4″-cyanophenyl)-aminoquinoline] | %C = 7.4 ^c | 27.8 ± 3.1 | %C = 0.0 ^c | 48.8 ± 41 | 256.5 to 257 | %C = 24.0 ^c | %C = 14.9 ^c | %C = 38.2 ^c | 33.4 ± 1.7 | %C = 21.0 ^c | %C = 0.0 ^c | 83.4 ± 5.7 | %C = 3.0 ^c | – | – | – | – | – | – | – | – |
| N#Cc1ccc(Nc2cc(Oc3ccc(C#N)cc3)c3ccccc3n2)cc1 [Compound 5c, 4-(4′-cyanophenoxy)-2-(4″-cyanophenyl)-aminoquinoline] | %C = 12.0 ^c | 39.7 ± 3.0 | %C = 26.0 ^c | – | – | %C = 45.0 ^c | %C = 38.4 ^c | %C = 44.8 ^c | – | %C = 26.0 ^c | %C = 0.0 ^c | – | %C = 23.0 ^c | %C = 6.0 ^c | – | – | – | – | – | – | %C percentage cytotoxicity HL-60 (HL-60 (promyeloblast)): %C = 2.0 ^c; %C percentage cytotoxicity HeLA [7]: %C = 25.0 ^c |
| Cc1cc(C=O)cc(C)c1Oc1cc(Oc2c(C)cc(C=O)cc2C)c2ccccc2n1 [Compound 4b, 2,4-di-(2′,6′-Dimethyl-4′-formylphenoxy)-quinoline] | – | – | – | 61.6 ± 0.7 | 120.5 to 121 | – | – | – | 5.7 ± 2 | – | – | 5.3 ± 0.2 | – | – | 60.4 ± 2 | 42.1 ± 2.5 | 15.3 ± 1.6 | 50.6 ± 1.2 | 38.5 ± 1.3 | 11.1 ± 0.7 | IC50 [3]: 30.9 ± 5.7 µM; IC50 [5]: 22.5 ± 3.3 µM; IC50 (S102 (Thai liver cancer)): 89.4 ± 0.1 µM |
| N#Cc1ccc(Nc2cc(Oc3ccc(C=O)cc3)nc3ccccc23)cc1 [Compound 8a, 2-(4′-formylphenoxy)-4-(4″-cyanophenyl)-aminoquinoline] | – | – | %C = 8.4 ^c | 21.5 ± 3.3 | 238.5 to 238.9 | %C = 0.0 ^c | – | – | 107 ± 1.4 | – | %C = 2.9 ^c | 112 ± 3.1 | – | – | 119 ± 5.7 | 29.6 ± 2.7 | 118 ± 5.8 | 85.3 ± 3.5 | 111 ± 5.6 | 22.7 ± 1.9 | – |
| Cc1cc(C=O)cc(C)c1Oc1cc(Nc2ccc(C#N)cc2)c2ccccc2n1 [Compound 8b, 2-(2′,6′-Dimethyl-4′-formylphenoxy)-4-(4″-cyanophenyl)-aminoquinoline] | %C = 9.7 ^c | – | %C = 6.0 ^c | 22.3 ± 1.9 | 200 to 201.3 | %C = 38.0 ^c | – | – | 34.9 ± 5.1 | %C = 37.0 ^c | %C = 0.0 ^c | 42.3 ± 2.7 | %C = 43.0 ^c | – | – | 39.6 ± 1.5 | 107 ± 3.2 | 106 ± 9.7 | – | – | – |
| Cc1cc(C=CC#N)cc(C)c1Oc1cc(Nc2ccc(C#N)cc2)c2ccccc2n1 [Compound 11b, 2-(4′-(2″-(E, Z)-cyanovinyl)-2′,6′-dimethyl-phenoxy)-4-(4″-cyanophenyl)-aminoquinoline] | %C = 0.0 ^c | – | %C = 3.0 ^c | – | 180.7 to 182.3 | %C = 4.0 ^c | %C = 14.1 ^c | %C = 3.7 ^c | – | %C = 0.0 ^c | %C = 0.0 ^c | – | %C = 0.0 ^c | %C = 19.0 ^c | – | 34.3 ± 2.6 | – | – | – | – | %C percentage cytotoxicity HL-60 (HL-60 (promyeloblast)): %C = 0.0 ^c; %C percentage cytotoxicity HeLA [7]: %C = 2.0 ^c |
| Cc1cc(C=O)cc(C)c1Oc1cc(Nc2ccc(C#N)cc2)nc2ccccc12 [Compound 5b, 4-(2′,6′-Dimethyl-4′-formylphenoxy)-2-(4″-cyanophenyl)-aminoquinoline] | – | 34.0 ± 2.5 | – | 11.8 ± 1.6 | 291.3 to 292.2 | – | – | – | 4.5 ± 0.2 | – | – | 3.9 ± 0.6 | – | – | 69.8 ± 4.3 | – | 15.9 ± 0.4 | 65.9 ± 6.1 | 51.2 ± 3 | 29.4 ± 2 | IC50 [3]: 27.6 ± 3.4 µM; IC50 [5]: 22.9 ± 0.9 µM; IC50 (S102 (Thai liver cancer)): 74 ± 5.3 µM |
| Cc1cc(C=O)cc(C)c1Oc1cc(Nc2ccc(C#N)cn2)nc2ccccc12 [Compound 6b, 4-(2’,6’-Dimethyl-4’-formylphenoxy)-2-(5″-cyanopyridin-2″ylamino)quinoline] | %C = 26.1 ^c | – | %C = 21.0 ^c | 12.7 ± 1.1 | 275.7 to 276.5 | %C = 38.0 ^c | – | – | 20.5 ± 2.1 | – | – | 25.7 ± 0.8 | – | – | – | 44.5 ± 2.8 | 103 ± 1.9 | 92.8 ± 11.8 | 108 ± 1.2 | 126 ± 1.8 | cytotoxicity toward normal embryonic lung (MRC-5) cells, in words [1]: very low cytotoxicity; IC50 (HIV-1 RT [9]): 1.93 µM; IC50 (S102 (Thai liver cancer)): 112 ± 1.8 µM |
| N#Cc1ccc(Oc2cc(Oc3ccc(C#N)cc3)c3ccccc3n2)cc1 [Compound 4c, 2,4-di-(4′-cyanophenoxy)-quinoline] | – | – | %C = 21.0 ^c | – | 220.9 to 221.5 | %C = 27.0 ^c | – | %C = 41.4 ^c | – | %C = 12.0 ^c | %C = 23.7 ^c | – | %C = 15.0 ^c | %C = 11.0 ^c | 108 ± 6.4 | 30.9 ± 1.8 | 92.5 ± 4.2 | – | – | – | %C percentage cytotoxicity HL-60 (HL-60 (promyeloblast)): %C = 15.0 ^c; %C percentage cytotoxicity HeLA [7]: %C = 23.0 ^c |
| N#Cc1ccc(Nc2cc(Oc3ccc(C=O)cc3)c3ccccc3n2)nc1 [Compound 6a, 4-(4’-formylphenoxy)-2-(5″-cyanopyridin-2″ylamino)quinoline] | – | – | – | 5.13 ± 1.5 | 248 to 249 | – | – | – | 15 ± 1.8 | %C = 42.0 ^c | %C = 31.7 ^c | 15.4 ± 0.8 | – | – | 18.3 ± 3.9 | 19.4 ± 1.8 | 68 ± 2 | 23.7 ± 1 | – | 14.9 ± 1.1 | IC50 [3]: 64.2 ± 2.5 µM; IC50 [5]: 46.3 ± 0.2 µM |
